Assay [1] has as its system HT22 cells. The assay can be described thus: Oxidative glutamate toxicity (MTT cell viability). It counts as cell-based. The settings on record: 5 mM glutamate, fisetin, 24 hr. The protocol: Cell viability was determined by a modified version of 3-(4,5-dimethylthiazol-2-yl)-2,5-diphenyl tetrazolium bromide (MTT) assay based on the standard procedure (Hansen M B et al. J. Immunol. Methods 119:203-210, 1989). Briefly, cells were seeded onto 96-well microtiter plates at a density of 5×10^3 cells per well. The next day, the medium was replaced with DMEM supplemented with 7.5% DFCS and the cells were treated with the different fisetin derivatives alone or in the presence of 5 mM glutamate. Twenty four hours later, the medium in each well was aspirated and replaced with fresh medium containing 2.5 μg/ml MTT. After 4 hours of incubation at 37° C., cells were solubilized with 100 μA of a solution containing 50% dimethylformamide and 20% SDS (pH 4.7). The absorbance at 570 nm was measured on the following day with a microplate reader (Molecular Devices). Results obtained from the MTT assay correlated directly with the extent of cell death as confirmed visually. Controls employing wells without cells were used to determine the effects of the agents upon the assay chemistry.
(§1) As shown in panel (A) of FIG. 3, HT22 cells were untreated (ct) or treated with 10 μM fisetin (fis) in the absence of presence of 5 mM glutamate for 24 hr and GSH was measured enzymatically and normalized to protein. As shown in panel (B) of FIG. 3, HT22 cells in 96-well plates were treated with 5 mM glutamate and the indicated concentrations of fisetin. MTT reduction was measured after 24 hr.

Assay [2] has as its system HT22 cells. Nature of the assay: GSH level in HT22 cells. The note with it: 10 μM fisetin, absence or presence of 5 mM glutamate, 24 hr. It counts as cell-based. As for the experimental part:
as §1

The target in assay [3] is BSA (Bos taurus, UniProt P02769). Nature of the assay: Glycation of BSA by glucose (anti-CML Western blot and fluorescence assay). It counts as biochemical. The settings on record: 100 mM glucose, 14 days 37° C., 100 μM fisetin; Western blotting with a-CML and fluorescence assay. As for the experimental part: (§2) In reference to FIG. 1, BSA was incubated with either 100 mM glucose (G) or 100 mM methylglyoxal (MG) for 14 days at 37° C. plus or minus 100 μM fisetin. The BSA was dialyzed vs. PBS run on SDS-PAGE and blotted with anti-carboxymethyl lysine (CML) (a glucose AGE) or anti-MG adducts from Dr. Brownlee. […] In FIG. 1, panel B, anti-MG only reacts with MG treated BSA and also causes protein polymerization. In FIG. 1, panel C, co-incubation with fisetin results in inhibition of glucose glycation in 2 assays, Western blotting with a-CML (BL, hatched bars) and a fluorescence assay for protein glycation (FL, clear bars). In FIG. 1, panel D, fisetin inhibited protein glycation caused by high glucose exposure of human brain microvascular cells. Cells were exposed to either 5 mM (−Glu) or 25 mM (+Glu) glucose for 5 days plus (F) or minus (C) 1 μM fisetin. Cells were then harvested and blotted with either anti-CML or MG antisera.
Chain of BSA (P02769 25-607): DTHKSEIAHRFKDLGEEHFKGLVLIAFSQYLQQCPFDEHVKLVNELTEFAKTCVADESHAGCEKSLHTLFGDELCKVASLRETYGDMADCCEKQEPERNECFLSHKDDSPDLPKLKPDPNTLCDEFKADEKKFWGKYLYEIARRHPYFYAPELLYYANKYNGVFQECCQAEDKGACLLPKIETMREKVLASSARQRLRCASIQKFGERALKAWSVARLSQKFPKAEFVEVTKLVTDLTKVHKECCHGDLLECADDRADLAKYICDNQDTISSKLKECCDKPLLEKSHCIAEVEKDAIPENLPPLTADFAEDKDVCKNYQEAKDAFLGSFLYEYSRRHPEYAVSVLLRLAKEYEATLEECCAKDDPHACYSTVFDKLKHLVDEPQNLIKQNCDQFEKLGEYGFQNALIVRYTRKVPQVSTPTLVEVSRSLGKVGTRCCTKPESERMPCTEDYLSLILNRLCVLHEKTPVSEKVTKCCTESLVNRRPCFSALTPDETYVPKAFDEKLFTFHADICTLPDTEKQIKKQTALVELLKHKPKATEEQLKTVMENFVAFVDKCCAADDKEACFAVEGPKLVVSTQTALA

In assay [4] the test system is osteopontin (OPN). Nature of the assay: Kidney osteopontin (OPN) in Akita mice (immunoblot). It counts as in vivo. The settings on record: fisetin in diet, OPN band normalized to actin. As for the experimental part:
Kidneys were homogenized in phosphate buffered saline containing protease and phosphatase inhibitors. Equal amounts of protein, as determined by the BCA assay (Pierce), were solubilized in SDS-sample buffer containing 0.1 mM Na3VO4 and 1 mM phenylmethylsulfonyl fluoride (PMSF), boiled for 5 min and either analyzed immediately or stored frozen at −70° C. Proteins were separated on 10% SDS-polyacrylamide gels and transferred to nitrocellulose. Equal loading and transfer of the samples was confirmed by staining the nitrocellulose with Ponceau-S. Transfers were blocked for 1 h at room temperature with 5% nonfat milk in TBS/0.1% Tween 20 and then incubated overnight at 4° C. in the primary antibody diluted in 5% BSA in TBS/0.05% Tween 20. The primary antibodies used were: rabbit anti-osteopontin (Millipore) and actin-HRP (Cell Signaling). […]
OPN is a key regulator of the pathophysiological changes associated with diabetic nephropathy (Nicolas et al. Kidney Int. advance online publication, 3 Feb. 2010). […] Kidney samples from 6-7 mice were analyzed and the average intensity of the OPN band normalized to actin is shown in the graph. […] In FIG. 10, the data was analyzed by ANOVA followed by Tukey's post test. *** P<0.001
On the technique in general: In western blotting, separated proteins are transferred to a membrane and probed.

The test system of assay [5] is human brain microvascular cells. The assay can be described thus: Protein glycation in human brain microvascular cells exposed to glucose. It counts as cell-based. The settings on record: 1 μM fisetin. The protocol: as §2
The subject of assay [6] is C-reactive protein. The assay can be described thus: Serum C-reactive protein in Akita mice (Western blot). The settings on record: fisetin-rich diet. It counts as in vivo. As for the experimental part: C-reactive protein in serum was measured by SDS-PAGE and Western blotting analysis of mouse serum using an antibody from R&D.
C-reactive protein is an acute phase protein that increases during chronic inflammation such as is seen in diabetes. Equal amounts of serum from wild type, wild type+fisetin, Akita and Akita+fisetin mice were analyzed by SDS-PAGE and immunoblotting with an antibody to C-reactive protein. Samples from 6-7 mice were analyzed and the average intensity of the C-reactive protein band determined. The data were analyzed by ANOVA followed by Tukey's post test. *** P<0.001.

Assay [7] concerns Akita mice. Nature of the assay: Urine albumin/creatinine ratio in Akita mice. It counts as in vivo. The note with it: fisetin 0.05% in diet for 18 weeks. As for the experimental part: Urine albumin concentration was determined by competitive enzyme-linked immunoadsorbent assay using an Albuwell M kit (Exocell, Philadelphia, Pa.). Urine creatinine concentration was determined by Jaffe's reaction of alkaline picrate with creatinine using a Creatinine Companion kit (Exocell). Results are expressed as the urine albumin-to-creatinine ratio (micrograms per milligram).
Male Akita mice were fed control diet or fisetin (0.05%) for 18 weeks beginning at 6 weeks of age. Kidney hypertrophy was assessed by weighing the kidneys. Kidney function was assessed by measuring the albumin/creatinine ratio in the urine. Fisetin reduced diabetes-induced renal hypertrophy and proteinuria. All data are mean±SD of N=5-7/group.

For `O=c1c(O)c(-c2ccc(O)c(O)c2)oc2cc(O)ccc12` [fisetin, 2-(3,4-dihydroxyphenyl)-3,7-dihydroxychromen-4-one], the “glutamate toxicity (MTT reduction)” value in assay [1] is listed as “Reduction”. Further, in assay [2], the GSH result is “Upregulation”. Further, the “glucose glycation of BSA” value in assay [3] is “inhibition”. Besides, in assay [4], the “diabetes-dependent upregulation of osteopontin (OPN) in kidney” value is recorded as “Prevented”. In addition, the “increase of CML and MG adducts caused by high glucose” value in assay [5] (25 mM glucose 5 days) was “blocked, at least in part”. For the same compound, the “endogenous glycation of some proteins” value in assay [5] (low glucose medium (5 mM)) was “inhibits”. For the same compound, in assay [6], the “diabetes-induced increase in serum C-reactive protein” value is listed as “largely prevented”. Also, the “proteinuria (urine albumin/creatinine ratio)” value is on record as “almost completely prevented” in assay [7] and “reduced” in assay [7] (listed as Fisetin).

The values are drawn from US8466195B2, “Methods and compositions for treating complications of diabetes and vascular diseases using flavones” (Salk Institute for Biological Studies, priority 2009, dated 2013).
